Data as given in PubChem BioAssay (NCI).
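These data come from cells grown in 96-well plates and exposed to compound for 48 hours at five concentrations. At the TGI there is no net growth.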

Key:
Assay in all cases: growth of human tumour cells (NCI), 48 h
786-0 renal = tested on: 786-0 renal
A549 NSCLC = tested on: A549 NSCLC
ACHN renal = tested on: ACHN renal
BT-549 breast = tested on: BT-549 breast
CCRF-CEM leukemia = tested on: CCRF-CEM leukemia
COLO 205 colon = tested on: COLO 205 colon
DU-145 prostate = tested on: DU-145 prostate
EKVX NSCLC = tested on: EKVX NSCLC
HCC-2998 colon = tested on: HCC-2998 colon
HCT-116 colon = tested on: HCT-116 colon
HCT-15 colon = tested on: HCT-15 colon
HL-60(TB) leukemia = tested on: HL-60(TB) leukemia
HOP-62 NSCLC = tested on: HOP-62 NSCLC
HS 578T breast = tested on: HS 578T breast
HT29 colon = tested on: HT29 colon
IGROV1 ovarian = tested on: IGROV1 ovarian
K-562 leukemia = tested on: K-562 leukemia
KM12 colon = tested on: KM12 colon
M14 melanoma = tested on: M14 melanoma
MALME-3M melanoma = tested on: MALME-3M melanoma
MCF7 breast = tested on: MCF7 breast
MDA-MB-231 breast = tested on: MDA-MB-231 breast
MDA-MB-435 = tested on: MDA-MB-435
MDA-N = tested on: MDA-N
MOLT-4 leukemia = tested on: MOLT-4 leukemia
NCI-H226 lung = tested on: NCI-H226 lung
NCI-H23 lung = tested on: NCI-H23 lung
NCI-H460 lung = tested on: NCI-H460 lung
NCI-H522 lung = tested on: NCI-H522 lung
NCI/ADR-RES ovarian = tested on: NCI/ADR-RES ovarian
OVCAR-3 ovarian = tested on: OVCAR-3 ovarian
OVCAR-4 ovarian = tested on: OVCAR-4 ovarian
OVCAR-5 ovarian = tested on: OVCAR-5 ovarian
OVCAR-8 ovarian = tested on: OVCAR-8 ovarian
PC-3 prostate = tested on: PC-3 prostate
RPMI-8226 leukemia = tested on: RPMI-8226 leukemia
RXF 393 renal = tested on: RXF 393 renal
SF-268 CNS = tested on: SF-268 CNS
SF-295 CNS = tested on: SF-295 CNS
SK-MEL-2 melanoma = tested on: SK-MEL-2 melanoma
SK-MEL-28 melanoma = tested on: SK-MEL-28 melanoma
SK-MEL-5 melanoma = tested on: SK-MEL-5 melanoma
SK-OV-3 ovarian = tested on: SK-OV-3 ovarian
SN12C renal = tested on: SN12C renal
SNB-19 CNS = tested on: SNB-19 CNS
SNB-75 CNS = tested on: SNB-75 CNS
SW-620 colon = tested on: SW-620 colon
T-47D breast = tested on: T-47D breast
TK-10 renal = tested on: TK-10 renal
U251 CNS = tested on: U251 CNS
UACC-257 melanoma = tested on: UACC-257 melanoma
UACC-62 melanoma = tested on: UACC-62 melanoma
UO-31 renal = tested on: UO-31 renal

N#C/C(=N/Nc1nc[nH]c1C(N)=O)C(=O)Nc1ccccc1
TGI (786-0 renal): > 100 µM
TGI (A549 NSCLC): > 100 µM
TGI (ACHN renal): > 100 µM
TGI (BT-549 breast): > 100 µM
TGI (CCRF-CEM leukemia): > 100 µM
TGI (COLO 205 colon): > 100 µM
TGI (DU-145 prostate): > 100 µM
TGI (EKVX NSCLC): > 100 µM
TGI (HCC-2998 colon): > 100 µM
TGI (HCT-116 colon): > 100 µM
TGI (HCT-15 colon): > 100 µM
TGI (HL-60(TB) leukemia): > 100 µM
TGI (HOP-62 NSCLC): > 100 µM
TGI (HS 578T breast): > 100 µM
TGI (HT29 colon): > 100 µM
TGI (IGROV1 ovarian): > 100 µM
TGI (K-562 leukemia): > 100 µM
TGI (KM12 colon): > 100 µM
TGI (M14 melanoma): > 100 µM
TGI (MALME-3M melanoma): > 100 µM
TGI (MCF7 breast): > 100 µM
TGI (MDA-MB-231 breast): > 100 µM
TGI (MDA-MB-435): > 100 µM
TGI (MDA-N): > 100 µM
TGI (MOLT-4 leukemia): > 100 µM
TGI (NCI-H226 lung): > 100 µM
TGI (NCI-H23 lung): > 100 µM
TGI (NCI-H460 lung): > 100 µM
TGI (NCI-H522 lung): 45.7 µM
TGI (NCI/ADR-RES ovarian): > 100 µM
TGI (OVCAR-3 ovarian): 89.6 µM
TGI (OVCAR-4 ovarian): > 100 µM
TGI (OVCAR-5 ovarian): > 100 µM
TGI (OVCAR-8 ovarian): > 100 µM
TGI (PC-3 prostate): > 100 µM
TGI (RPMI-8226 leukemia): > 100 µM
TGI (RXF 393 renal): > 100 µM
TGI (SF-268 CNS): > 100 µM
TGI (SF-295 CNS): > 100 µM
TGI (SK-MEL-2 melanoma): > 100 µM
TGI (SK-MEL-28 melanoma): > 100 µM
TGI (SK-MEL-5 melanoma): > 100 µM
TGI (SK-OV-3 ovarian): > 100 µM
TGI (SN12C renal): > 100 µM
TGI (SNB-19 CNS): > 100 µM
TGI (SNB-75 CNS): > 100 µM
TGI (SW-620 colon): > 100 µM
TGI (T-47D breast): > 100 µM
TGI (TK-10 renal): > 100 µM
TGI (U251 CNS): > 100 µM
TGI (UACC-257 melanoma): > 100 µM
TGI (UACC-62 melanoma): > 100 µM
TGI (UO-31 renal): > 100 µM
